Tests used:
[1] = molecular target: GDP-bound KRAS protein (aa 1-169), containing both G12C and C118A amino acid substitutions (Homo sapiens (Human), UniProt P01116, C118A/G12C); assay: Coupled nucleotide exchange assay (SOS-mediated nucleotide exchange, AlphaScreen); assay type: biochemical; conditions: read-out: Coupled exchange IC50 (5 min; μM); 5 min compound pre-incubation
[2] = system: Phosphorylation of ERK1/2 in MIA PaCa-2 cells; assay: Phospho-ERK1/2 MSD assay in MIA PaCa-2 cells; assay type: cell-based; conditions: Homo sapiens, MIA PaCa-2, 2 h, read-out: p-ERK IC50 (2 h, MiaPaCa-2; μM), 2 h compound treatment, MIA PaCa-2 cells, EGF stimulated
Method in brief: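 Phospho-ERK1/2 measured by MSD electrochemiluminescence kit in RIPA lysates of MIA PaCa-2 cells. Cells were treated with compound titrations for 2 or 4 h at 37 °C, 5% CO2, followed by a 10 min pulse of 10 ng/mL EGF.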

[3] = system: Phosphorylation of ERK1/2 in A549 cells; assay: Phospho-ERK1/2 MSD assay in A549 cells; assay type: cell-based; conditions: Homo sapiens, A549, 2 h, read-out: p-ERK IC50 (2 h, A549; μM), 2 h compound treatment, A549 cells, EGF stimulated
Method in brief: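 MSD electrochemiluminescent read-out of phospho-ERK1/2 in RIPA lysates. Cells in RPMI 1640 with 10% FBS received titrated compound for 2 or 4 h, then 10 ng/mL EGF for 10 min before ice-cold PBS wash and lysis.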

Sequence of GDP-bound KRAS protein (aa 1-169), containing both G12C and C118A amino acid substitutions (P01116 other isoform, or with tags, fused parts or gaps G12C/C118A): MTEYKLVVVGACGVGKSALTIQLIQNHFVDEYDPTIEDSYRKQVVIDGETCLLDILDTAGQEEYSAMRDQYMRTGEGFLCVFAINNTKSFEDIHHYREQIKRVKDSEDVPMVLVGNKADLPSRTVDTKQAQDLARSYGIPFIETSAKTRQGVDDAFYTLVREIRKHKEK

Row | Structure (SMILES) | IC50 [1] [µM] | IC50 [2] [µM] | IC50 [3] [µM]
1 | C=CC(=O)N1C[C@H](C)N(c2nc(=O)n(-c3c(C(C)C)nc(Br)nc3C(C)C)c3nc(-c4ccccc4F)c(Cl)cc23)C[C@H]1C [Example 106-1, 4-((2S,5R)-4-Acryloyl-2,5-dimethylpiperazin-1-yl)-1-(2-bromo-4,6-diisopropylpyrimidin-5-yl)-6-chloro-7-(2-fluorophenyl)pyrido[2,3-d]pyrimidin-2(1H)-one] | 0.08 | 0.096 | 4.54
2 | C=CC(=O)N1CCN(c2nc(=O)n(CC(C)(C)C)c3nc(-c4ccccc4F)c(Cl)cc23)[C@@H](C)C1 [Example 106-2, 6-Chloro-1-(2,2-dimethylpropyl)-7-(2-fluorophenyl)-4-[(2S)-2-methyl-4-prop-2-enoyl-piperazin-1-yl]pyrido[2,3-d]pyrimidin-2-one] | 1.01 | 5.31 | > 7.5
3 | C=CC(=O)N1CCN(c2nc(=O)n(CC(C)(C)C)c3nc(-c4ccccc4F)c(Cl)cc23)C[C@@H]1CO [Example 106-3, 6-Chloro-1-(2,2-dimethylpropyl)-7-(2-fluorophenyl)-4-[(3R)-3-(hydroxymethyl)-4-prop-2-enoyl-piperazin-1-yl]pyrido[2,3-d]pyrimidin-2-one] | 8.34 | 10 | > 7.5
4 | C=CC(=O)N1C[C@H](C)N(c2nc(=O)n(CC(C)(C)OC)c3nc(-c4ccccc4F)c(Cl)cc23)C[C@H]1C [Example 106-4, 6-Chloro-4-[(2S,5R)-2,5-dimethyl-4-prop-2-enoyl-piperazin-1-yl]-7-(2-fluorophenyl)-1-(2-methoxy-2-methyl-propyl)pyrido[2,3-d]pyrimidin-2-one] | 5.04 | 2.45 | > 7.5
5 | C=CC(=O)N1CCN(c2nc(=O)n(CC(C)(C)OC)c3nc(-c4ccccc4F)c(Cl)cc23)CC1 [Example 106-5, 6-Chloro-7-(2-fluorophenyl)-1-(2-methoxy-2-methyl-propyl)-4-(4-prop-2-enoylpiperazin-1-yl)pyrido[2,3-d]pyrimidin-2-one] | 6.13 | 1.46 | > 7.5
6 | C=CC(=O)N1C[C@@H](C)N(c2nc(=O)n(-c3c(C)ccnc3C(C)C)c3nc(-c4ccccc4F)c(Cl)nc23)[C@@H](C)C1 [Example 106-7-2, 6-Chloro-4-[(2R,6S)-2,6-dimethyl-4-prop-2-enoyl-piperazin-1-yl]-7-(2-fluorophenyl)-1-(2-isopropyl-4-methyl-3-pyridyl)pteridin-2-one] | 0.129 | 0.271 | > 7.5
7 | C=CC(=O)N1C[C@H](C)N(c2nc(=O)n(CC(C)(C)C#N)c3nc(-c4ccccc4F)c(Cl)cc23)C[C@H]1C [Example 106-8, 3-[6-Chloro-4-[(2S,5R)-2,5-dimethyl-4-prop-2-enoyl-piperazin-1-yl]-7-(2-fluorophenyl)-2-oxo-pyrido[2,3-d]pyrimidin-1-yl]-2,2-dimethyl-propanenitrile] | 3.35 | 1.88 | > 7.5
8 | C=CC(=O)N1CCN(c2nc(=O)n(CC(C)(C)C#N)c3nc(-c4ccccc4F)c(Cl)cc23)[C@@H](C)C1 [Example 106-9, 3-[6-Chloro-7-(2-fluorophenyl)-4-[(2S)-2-methyl-4-prop-2-enoyl-piperazin-1-yl]-2-oxo-pyrido[2,3-d]pyrimidin-1-yl]-2,2-dimethyl-propanenitrile] | 3.7 | 2.24 | > 7.5
9 | C=CC(=O)N1C[C@H](C)N(c2nc(=O)n(-c3c(C(C)C)nc(NC)nc3C(C)C)c3nc(-c4ccccc4F)c(Cl)cc23)C[C@H]1C [Example 107-1, 4-((2S,5R)-4-Acryloyl-2,5-dimethylpiperazin-1-yl)-6-chloro-1-(4,6-diisopropyl-2-(methylamino)pyrimidin-5-yl)-7-(2-fluorophenyl)pyrido[2,3-d]pyrimidin-2(1H)-one] | 0.026 | 0.064 | 5.57

— US11285156B2, “Substituted piperazines as KRAS G12C inhibitors” (Amgen Inc., priority 2018, dated 2022)
